Laboratory results reported in US20260355142A1, “AMORPHOUS OTE[…] COMPOSITIONS AND USES THEREOF AND DOSAGE REGIMENS FOR OTENAPROXESUL” (ANTIBE THERAPEUTICS INC., priority 2022, published 2026).

Assays:
[1] = tested on: liver adverse effects; assay: Clinical study of three crystalline otenaproxesul regimens, liver safety; type: in vivo, human; details: 1500 mg single; 1500 mg + 100 mg Days 2-5; 2000 mg single
Protocol: Data were collected over a 312-hour period at protocol-specified intervals. Sampling was most frequent during the first 2 hours post drug administration. Treatment regimens were (i) otenaproxesul single dose 1500 mg (Total 1500 mg); (ii) crystalline otenaproxesul Day 1 single dose 1500 mg plus 100 mg on Days 2-5 (Total 1900 mg) or (iii) crystalline otenaproxesul single dose 2000 mg (Total 2000 mg).

[2] = Stability/purity of ASDs by HPLC; type: physicochemical; details: no storage condition given
Protocol: The stability of the exemplary amorphous solid dispersions of the application were evaluated using HPLC and are shown in Tables 14 A and B.
HPLC analyses were performed on a Waters 2695 or Agilent 1200, or equivalent, instrument. The column was an ACE-5 C18 150 mm×4.6 mm, 5 μm or equivalent column. The flow rate was 1.0 mL/min, the injection volume was 10 μL, the column temperature was 25° C., the sample temperature was 5° C. and the wavelength for detection was 254 nm. Two eluents were used which were either (1) A: 1.8 g K2HPO4·3H2O dissolved in 1000 ml of water and pH adjusted to 5.5 using orthophosphoric acid and B: acetonitrile; or (2) A: 1.4 g K2HPO4·3H2O dissolved in 1000 ml of water and pH adjusted to 7.0 with 85% phosphoric acid and B: acetonitrile.

[3] = H2S release / formulation stability in simulated intestinal fluid; details: SIF, 1 mg/ml, 37° C., 5% CO2
Protocol: Assay design: 1 mg of exemplary ASD no. 1 and crystalline otenaproxesul were weighed in separate glass vials. SIF was added to prepare a 1 mg/ml solution which was incubated at 37° C. with 5% CO2. 120 μl was removed at 0.5, 1, 2, 3, 4 and 8 hrs and quenched in DPD (N,N-dimethyl-p-phenylenediamine sulfate) and FeCl3 solutions. A calibration curve was prepared to quantify amount of H2S released. A blank and 10 mM stock was also analyzed. The methylene blue was analyzed using HPLC.

[4] = Dog pharmacokinetics of otenaproxesul amorphous dispersion (Example 20); type: in vivo, male Beagle dogs
Protocol: Summary: Over a 4-day treatment period dogs were administered four treatment doses of the otenaproxesul amorphous solid dispersion formulation (exemplary ASD no. 1) and a crystalline otenaproxesul control dose. Treatments corresponding to human equivalent doses of 70.2 mg, 140.4 mg, 280.8 mg and 561.6 mg otenaproxesul were administered once daily to male (n=4) dogs. Crystalline otenaproxesul was administered at the NOAEL dose equivalent to a human dose of 526.5 mg otenaproxesul once daily.
Pharmacokinetic data were evaluated on M25 plasma naproxen concentrations at 60 minutes post administration (C60), Day 1 M25 plasma exposure (AUC0-24) and Day 4 M25 plasma exposure (AUC0-Last). Assessment of dose proportional characteristics for M25 plasma concentration at 60 minutes post administration (C60) and at maximal concentration (Cmax) and AUC exposure were measured on Day 1 and Day 4 of treatment.

[5] = Phase 1 SAD clinical trial, plasma naproxen (M25) levels; type: in vivo, human; details: single oral dose of about 1500 mg to 2000 mg
Protocol: Otenaproxesul (crystalline form) was orally administered at a range of doses to healthy volunteers, both as a single dose, and as a daily (or twice-daily) dose for 14 days. Each cohort consisted of 8 subjects, with 6 receiving otenaproxesul and 2 receiving placebo. A total of 8 cohorts were studied in the single-dose study (25 mg, 75 mg, 150 mg, 300 mg, 500 mg, 1000 mg, 1500 mg and 2000 mg), and 3 cohorts in the multiple-dose study (250 and 750 once daily, and 750 mg bid (e.g., 1500 mg/day) for 14 days). All adverse events were recorded, and blood samples were drawn prior to and for at least 72 h after drug administration for measurement of otenaproxesul-derived naproxen levels. Routine cardiovascular, renal, hepatic and hematological biomarkers were monitored, along with clinical signs. […]
It is noted from the pharmacokinetic curves in FIG. 1 showing naproxen metabolite (M25) plasma levels following single dose crystalline otenaproxesul administrations in healthy subjects from the Phase 1 single ascending dose (SAD) study in Example 1, the time to attain maximal plasma concentration of M25 varies widely between 6 and 48 hours across the dosage spectrum. […] Therefore, while not being bound by theory, a single 2000 mg treatment is predicted to provide pain relief for 3 days and possibly to 5 days based upon measured and projected M25 plasma concentrations. […]

[6] = tested on: liver transaminases; assay: 28-day PK/PD and AME clinical study in healthy older adults, liver transaminase elevations; type: in vivo, human; details: 100 mg cohort, full drug administration period
Protocol: The study was designed in part on the observation that across the otenaproxesul treatment groups, treatment-related >3×ULN (“upper limit of normal”) ALT and/or AST transaminase levels were noted (almost exclusively after the 14-day dosing interval) in 9.8% (6/61) of patients in the 150 mg arm, 7.2% (9/125) of patients in the 200 mg arm and 12.9% (17/132) patients in the 250 mg arm, with this issue being substantially biased towards females),
In this clinical trial, 28-day human safety/PK data was generated to complement the 14-day DRF data from Example 2. Biomarker data/dose (e.g., thromboxane B2) were also generated using standard ELISA assay kits.
Otenaproxesul was supplied as 75 mg, 100 mg and 125 mg, brown, film-coated tablets and was in crystalline form. Patients were instructed to take 1 tablet of otenaproxesul in the morning after an overnight fast. Food intake was restricted until at least 30 minutes after the morning dose.
The study enrolled a total of 42 subjects on either a 75 mg or 100 mg dose per day of otenaproxesul, of whom 35 had completed the 28-day drug administration period, with seven subjects having been administered the drug for 21 days before the study was paused. […]

In the case of `COc1ccc2cc([C@H](C)C(=O)Oc3ccc(C(N)=S)cc3)ccc2c1` [crystalline otenaproxesul], the liver adverse effects [1] is reported as “No subjects in any of the three treatment arms exhibited any liver adverse effects”, the “ATB-346 API” value [2] is reported as 99.45% and the RRT-0.84 [2] is reported as 0.18%. The “RRT-0.85 ATB-346-Amide” value [2] was 0.07%, the RRT-1.10 [2] was 0.25% and the H2S release ([3]; 0.5 hrs) was 0.7 µM. The H2S release ([3]; 1 hr) was 0.7 µM, the H2S release ([3]; 2 hrs) was 1.2 µM and the H2S release ([3]; 3 hrs) was 2.2 µM. For the same molecule, the H2S release ([3]; 4 hrs) was 3.7 µM, the H2S release ([3]; 8 hrs) was 8.5 µM and the “M25 plasma concentration at 1 hour, Day 4, compared” value ([4]; crystalline HED 527 mg vs amorphous HED 562 mg) was “comparable M25 plasma concentrations”. The “Cmax Day 4/Day 1 ratio” value ([4]; dogs, HED 526.5 mg) was 1.4 and the “steady state pharmacokinetics of M25 compared” value ([4]; dogs, crystalline 526.5 mg vs amorphous 561.6 mg HED) was “virtually identical”.
With `COc1ccc2cc([C@H](C)C(=O)Oc3ccc(C(N)=S)cc3)ccc2c1` [otenaproxesul, (S)-4-carbamothioylphenyl 2-(6-methoxynaphthalen-2-yl) propanoate] the “duration of plasma naproxen metabolite greater than about 10 μg/mL” value [5] was “over 72 hours” and the “subjects with liver transaminase elevations exceeding five times the upper limit of normal” value [6] was “Three”.
